Measured values: publication PMC6143625, “A high throughput screen for next-generation leads targeting malaria parasite transmission” (Nature Communications, 2018)
pIC50: −log10 of the molar value.

Assays:
[1] = tested on: P. falciparum stage V male gametocytes (male gamete formation); test: P. falciparum dual gamete formation assay (Pf DGFA), male readout (exflagellation), 48 h carry-over format; assay type: cell-based, Plasmodium falciparum NF54; conditions: Plasmodium falciparum, 48 h incubation; for pIC50: 48 h, dose response retest of primary hits, read-out: Male IC50; for inhibition at 2 µM: primary screen, single replicate
[2] = tested on: P. falciparum 3D7 asexual blood stages; test: Whole-cell time extended asexual growth assay (pLDH); assay type: cell-based; conditions: Plasmodium falciparum, 72 h; for IC50: dose response retest, read-out: IC50 (µM) Asex stages; for inhibition at 2 µM: primary screen, read-out: %Inh Asex stages @2uM
Experimental: Asexual activity was assayed via Plasmodium lactate dehydrogenase activity (pLDH), a surrogate of asexual parasite growth. […] 2 µM artesunate and DMSO were used as the positive and negative controls, respectively. […] After plate mixing, NBT reduction was measured by absorbance at 650 nm using Envision (Perkin Elmer).

HepG2 human cells = tested on: HepG2 human cells; set-up: method as in http://dx.doi.org/10.6019/CHEMBL3507680; conditions: ref http://dx.doi.org/10.6019/CHEMBL3507680; cited from earlier work
[3] = tested on: P. falciparum stage V female gametocytes (female gamete formation); test: P. falciparum dual gamete formation assay (Pf DGFA), female readout (Pfs25 expression), 48 h carry-over format; assay type: cell-based, Plasmodium falciparum NF54; conditions: Plasmodium falciparum, 48 h incubation; for pIC50: 48 h, dose response retest of primary hits, read-out: Female IC50; for inhibition at 2 µM: primary screen, single replicate

| Compound | pIC50 [1] | IC50 [2] | pIC50 [3] | inhibition at 2 µM [1] | inhibition at 2 µM [2] | %Inh HepG2 @10uM (HepG2 human cells) | inhibition at 2 µM [3] |
| --- | --- | --- | --- | --- | --- | --- | --- |
| Cc1cc2nc(-c3cn(C4CCNCC4)nn3)[nH]c2cc1C [DDD01250700] | – | 2.49 µM | – | – | 60.9% | -2.26% | – |
| Cc1cnccc1NCCNC1CCN(CC(C)C)CC1 [DDD01251125] | – | 1.35 µM | – | – | 98.4% | 2.02% | – |
| CCc1[nH]c2c(CNc3nc(C)cc(NC)n3)cc(C)cc2c1C [DDD01251782] | – | 1.78 µM | – | – | 97.5% | 99.91% | – |
| Cc1cccnc1C(Nc1nccc(C2CCCC2)n1)C1CC1 (centres unmarked) [DDD01252324] | – | 1.71 µM | – | – | 73.4% | 0.36% | – |
| COc1cccc(OC)c1CN1CC(=O)N(c2ccc(C)cc2)CC1C (centres unmarked) [DDD01252418] | – | 5.59 µM | – | – | 31.8% | 1.44% | – |
| CNc1cc(C)nc(N2Cc3cnn(Cc4ccc(F)cc4)c3C2)n1 [DDD01252874] | – | 2.61 µM | – | – | 45.8% | 11.36% | – |
| Cc1nc(NCCSc2ccccn2)c2c(C)noc2n1 [DDD01253053] | – | 4.44 µM | – | – | 38.4% | -4.96% | – |
| NCC1Cc2cc(-c3nccc(N4CCC(O)CC4)n3)cc(F)c2O1 (centres unmarked) [DDD01254054] | – | 4.81 µM | – | – | 76.3% | 6.33% | – |
| CNC(=O)c1cn2cc(-c3ccccc3Cl)n(CC=C(C)C)c(=O)c2n1 [DDD01255495] | – | 6.64 µM | – | – | 43.8% | 35.09% | – |
| NCC(=O)N1CCCC1c1ccc(C(=O)NCc2ccoc2)s1 (centres unmarked) [DDD01257217] | – | 2.73 µM | – | – | 34.1% | -2.34% | – |
| CSCCNC(=O)c1ccc(OC2CCN(CC(C)(C)C)CC2)c(Cl)c1 [DDD01257510] | – | 5.38 µM | – | – | 38.4% | -7.80% | – |
| CN(Cc1cccc(O)c1)CC1CCCN(CCc2ccc(Cl)cc2)C1 (centres unmarked) [DDD01257948] | – | 1.79 µM | – | – | 92.9% | 10.17% | – |
| CCc1c(C)nc2cc(C3CCN(Cc4ccccc4F)C3)nn2c1O (centres unmarked) [DDD01270117] | – | 6.27 µM | – | – | 43.5% | -2.56% | – |
| CCNC(=O)C(C)NC(=O)c1cnc(-c2ccc(C)cc2C)s1 (centres unmarked) [DDD01300473] | – | 2.86 µM | – | – | 37% | 1.57% | – |
| Cc1nc2ccccc2nc1CN1CCCC1Cn1cccn1 (centres unmarked) [DDD01301355] | – | 8.56 µM | – | – | 31% | 20.57% | – |
| CN(Cc1ncc(C(C)(C)C)o1)CC1CCCN1c1cccnn1 (centres unmarked) [DDD01301524] | – | 5.73 µM | – | – | 31.2% | 23.44% | – |
| CC(C)c1cc(NC(=O)c2ccc(C(=O)NC(C)(C)C)cc2)[nH]n1 [DDD01301645] | – | 4.02 µM | – | – | 33.2% | -4.05% | – |
| CCC(C)(C)NC(=O)CN(C)C(c1cccc(F)c1)c1ccccn1 (centres unmarked) [DDD01301778] | – | 6.7 µM | – | – | 30.8% | 0.64% | – |
| Cc1ccc(Cl)cc1N1CCC(CNC(=O)CCn2ccnc2)C1 (centres unmarked) [DDD01302767] | – | 3.83 µM | – | – | 33.8% | -10.10% | – |
| CC(C)c1nn(C)c(Cl)c1CNCC(O)c1cccc(F)c1.Cl (centres unmarked) [DDD01304823] | – | 3.62 µM | – | – | 34.2% | -10.30% | – |
| O=C1CCCCN1c1cccc(CNC2CCCC2)c1 [DDD01305031] | – | 6.03 µM | – | – | 31.2% | -17.90% | – |

Further molecules by falling IC50 [2], results first:

| pIC50 [1] | IC50 [2] | pIC50 [3] | Compound | inhibition at 2 µM [1] | inhibition at 2 µM [2] | %Inh HepG2 @10uM (HepG2 human cells) | inhibition at 2 µM [3] |
| --- | --- | --- | --- | --- | --- | --- | --- |
| – | 7.81 µM | – | Cc1cc(C)n(C2CN(CC(O)c3ccc4c(c3)OCO4)C2)n1 (centres unmarked) [DDD01303662] | – | 40.2% | -2.16% | – |
| – | 3.93 µM | – | Cc1nc(CN2CCCC(N(C)Cc3c(C)noc3C)C2)no1 (centres unmarked) [DDD01304956] | – | 31.2% | 10.61% | – |
| – | 3.29 µM | – | Cc1cnc(C)c(N2CCN(CCCc3ccncc3)CC2)n1 [DDD01256723] | – | 48% | 6.37% | – |
| – | 3.07 µM | – | CCOc1cccc(CN2CCCC(Nc3ccc(F)cc3)C2)c1O (centres unmarked) [DDD01252745] | – | 42.7% | -6.06% | – |
| – | 2.83 µM | – | CCC1CN(C(=O)c2ccc(Cl)cc2O)CCN1C(C)C (centres unmarked) [DDD01258121] | – | 48.6% | -6.93% | – |
| – | 2.69 µM | – | COc1ccc(CNCC2CCN(CC(C)O)CC2)c2ccccc12 (centres unmarked) [DDD01302860] | – | 39.2% | 29.84% | – |
| – | 2.56 µM | – | COc1cccc(CN2CCCC(Nc3cccc(F)c3)C2)c1O (centres unmarked) [DDD01257695] | – | 55.2% | -4.92% | – |
| – | 2.56 µM | – | Cc1noc(C)c1CN(C)c1nc(C2CCCC2)nc2c1cnn2C [DDD01254835] | – | 57.1% | 9.62% | – |
| – | 2.46 µM | – | O=C(NCc1cnn2cccnc12)c1cccc(CC2CCNCC2)c1 [DDD01252275] | – | 33% | 5.06% | – |
| – | 2.44 µM | – | Cc1nc[nH]c1CN(C)CC1CCCN(CCc2ccc(Cl)cc2)C1 (centres unmarked) [DDD01257555] | – | 66.5% | 20.49% | – |
| – | 2.43 µM | – | CCCc1cncnc1N1CCC(NCc2cc3ccccc3[nH]2)CC1 [DDD01254125] | – | 35.4% | 8.09% | – |
| – | 1.97 µM | – | Cc1nc(-c2cc(Cl)cc3c2OC(CN)C3)c[nH]1 (centres unmarked) [DDD01251343] | – | 52.6% | 11.09% | – |
| – | 1.97 µM | – | CNc1nc(C)cc(NC2CCCN(C3Cc4ccccc4C3)C2)n1 (centres unmarked) [DDD01254555] | – | 91.2% | 14.91% | – |
| 5.95 | 1.73 µM | 5.44 | NCC1CCN(C2CCN(c3ccc(-c4ccco4)cc3)CC2)C1 (centres unmarked) [DDD01252361] | 94.8% | 68.3% | 101.96% | 64% |
| – | 1.27 µM | – | Cc1cc(C)n(C2CN(CC(O)c3cc(F)ccc3F)C2)n1 (centres unmarked) [DDD01298957] | – | 74.5% | 6.16% | – |
| 5.91 | 0.298 µM | 5.25 | COc1ccc(NC(=O)Cn2nc(C)c(C(C)=O)c2C)cc1 [DDD01027600] | 47.3% | 73.1% | 2.67% | < 30% |
